According to patent publication US20200163984A1, “USE OF ISOVALERYL SPIRAMYCIN I, II AND/OR III IN MANUFACTURING MEDICAMENT FOR TREATING AND/OR PREVENTING TUMOR, AND MEDICAMENT” (SHENYANG FUYANG PHARMACEUTICAL TECHNOLOGY CO., LTD., priority 2017, published 2020):

Test system: transplanted tumor of human glioblastoma cell A172
Settings: 50 mg/kg
Procedure: Then cell concentration was adjusted to 1×10^7/ml with matrigel, then each nude mouse was inoculated subcutaneously with 0.2 ml of cells at its right armpit and recorded as the first day of inoculation. When the tumor grows to be greater than or equal to 100 mm^3, the mice were randomly divided into 11 groups with 6 mice in each group: a model group, a temozolomide group, […], […], […] Each group was continuously administered intragastrically for 30 days with a dose of 20 ml/kg. The mice were sacrificed the next day after drug withdrawal and the indicators were tested. The long diameter and short diameter of the tumor, and the body weight of each mouse were recorded every 3 days from drug administration to nude mouse sacrifice.
The body weight of the nude mice and the long diameter (a) and short diameter (b) of the transplanted tumor were measured every 3 days, and the tumor volume (v), relative tumor volume (RTV) and relative tumor proliferation rate (T/C) are calculated respectively according to the following formulas, wherein V=a×b^2/2; RTV=V/V0 (V0 is the tumor volume before administration, V is the tumor volume before sacrifice), and T/C (%)=treatment group RTV/model control group RTV×100%.
Each mouse was weighed and sacrificed. After the tumor was completely stripped off from the body of the mouse, the non-tumor tissues such as blood stains and fat were removed to weigh the tumor and calculate the tumor growth inhibition rate. The average tumor weight of each group of mice is used as an indicator of efficacy. Tumor growth inhibition rate (%)=(1−the average tumor weight of the treatment group/the average tumor weight of the model group)×100%.

With Cn1nnc2c(C(N)=O)ncn2c1=O [temozolomide, reference compound] the “Inhibition Rate (%)” value (A172 nude mice) was 68.89%, the “Relative Tumor Proliferation Rate (T/C)” value (A172 nude mice) was 61.35% and the “Relative Tumor Volume (RTV)” value (A172 nude mice) was 4.12 ± 2.03. For the same compound, the “Tumor Weight” value (A172 nude mice) was 0.43 ± 0.06 g, the “Tumor Volume (mm3) (d 1)” value (A172 nude mice, d1) was 116.6 ± 10.91 mm3 and the “Tumor Volume (mm3) (d30)” value (A172 nude mice, d30) was 482.11 ± 89.74 mm3. The “Body Weight (g) (d1)” value (mouse, in vivo) was 21.07 ± 0.57 g and the “Body Weight (g) (d30)” value (mouse, in vivo) was 19.83 ± 1.24 g.
